In patent publication US7939509B2, “Partial and full agonists of A1 adenosine receptors” (Gilead Sciences, Inc., priority 2002, dated 2011):
Several values for one entry are separate records, joined by “and”; a condition that tells them apart may be missing. Equal entries are not always repeated.

Columns and labels:
[1] = cited from earlier work
awake rats [2] = test: Anti-lipolytic effect: serum free fatty acids (FFA) in overnight-fasted awake rats; format: in vivo, rat
Description: All experimental procedures were performed under a protocol approved by the Institutional Animal Care and Use Committee of CV Therapeutics, Inc., and in accordance with the recommendations set forth in the Guide for the Care and Use of Laboratory Animals published by the National Research Council. Male Sprague-Dawley rats (225-250 gm) with either one or two indwelling catheters (carotid and jugular) were purchased from Charles River Laboratories (Wilmington, Mass.). Animals were housed 1 per cage in a room maintained on a 12 h light/dark cycle (light on 06.00-18.00 h) under constant temperature (22-25° C.) and with ad libitum access to food and water. The anti-lipolytic effects of Compound A were studied in awake rats. Animals were fasted overnight before experimental use. On the day of the experiment, animals were put in metabolic cages and left undisturbed to acclimate to the environment for 1-2 hrs. An infusion set (21 G×¾″, 0.8×19 mm U.T.W., 3½″, 9 cm tubing, volume 0.15 ml) was connected to the arterial catheter for blood sampling. A 1% sodium citrate saline solution was used to flush the lines. A pre-treatment blood sample was obtained from each animal to determine baseline values for FFA and TG. Compound A was given via oral gavage, sc injection, iv injection, or iv infusion, as described, for each different series of experiments. Blood samples were collected into serum separator tubes (Becton Dickinson, Franklin Lakes, N.J.) at pre-determined times, Blood was allowed to clot, and then centrifuged at 8000 rpm for 4 min at 4° C. The serum was stored at −80° C. and was thawed at 4° C. for determinations of FFA and TG contents. […] Sodium citrate and Triton WR1339 were purchased from Sigma (St. Louis, Mo.). Nicotinic acid and PEG 400 were purchased from VWR (by EMD Chemicals). Triton WR 1339 was diluted in warm saline (˜37° C.) with frequent vortexing. […] Compound A was dissolved in PEG 400, and then diluted with distilled water to make a 20% PEG drug solution. Serum FFA and TGs were measured using commercial kits from Wako Chemicals, Richmond, Va. Glucose and Insulin were measured using commercial kits from Wako Chemicals USA (Richmond, Va.). All data are reported as mean±SEM. Statistical analysis of data from experiments with 2 treatment groups was performed using the unpaired Student's t-test. Two way analysis of variance followed by Bonferroni's test was used for multiple comparisons.

awake rats [3] = test: Insulin dose response to reduce FFA with and without Compound A in awake rats; format: in vivo, rat
Description: FIG. 6 graphically represents how Compound A potentates the effect of insulin in reducing FFA levels. Shown are the dose response curves for the effect of insulin to reduce FFA obtained in the absence and presence of Compound A (0.5 mg/kg) in awake rats. Both insulin and Compound A were given via IP injection. Each data point is the mean±SEM of the maximal (peak effect) percent decrease in FFA levels from baseline from three to five rats.
The anti-lipolytic effects of Compound A were studied in awake rats. Animals were fasted overnight before experimental use. On the day of the experiment, animals were put in metabolic cages and left undisturbed to acclimate to the environment for 1-2 hrs. An infusion set (21 G×¾″, 0.8×19 mm U.T.W., 3½″, 9 cm tubing, volume 0.15 ml) was connected to the arterial catheter for blood sampling. A 1% sodium citrate saline solution was used to flush the lines. A pre-treatment blood sample was obtained from each animal to determine baseline values for FFA and TG. Compound A was given via oral gavage, sc injection, iv injection, or iv infusion, as described, for each different series of experiments. Blood samples were collected into serum separator tubes (Becton Dickinson, Franklin Lakes, N.J.) at pre-determined times, Blood was allowed to clot, and then centrifuged at 8000 rpm for 4 min at 4° C. The serum was stored at −80° C. and was thawed at 4° C. for determinations of FFA and TG contents.
The effect of insulin (0.005-1 U/kg) to reduce serum FFA was determined in the absence and presence of a single dose (0.5 mg/kg) of Compound A (FIG. 6). Baseline FFA levels before insulin administration in vehicle and Compound A treated groups were 0.84±0.01 and 0.92±0.02 mM, respectively. […] The insulin dose response to reduce FFA levels was then repeated in the presence of Compound A (0.5 mg/kg). Compound A alone (0.5 mg/kg) caused an 18% decrease in FFA levels. The doses of insulin that cause 50% decrease (ED50) in FFA levels in the absence and presence of Compound A were 0.4 and 0.1 U/kg, respectively.

Compound: Nc1ncnc2c1ncn2[C@@H]1O[C@H](CO)[C@@H](O)[C@H]1O [adenosine]
- half-life [1]: less than 10 sec

Compound: O=C(O)c1cccnc1 [nicotinic acid, reference compound]
- maximal decrease in FFA levels (awake rats [2]; 10 mg/kg iv bolus): 57±5%
- FFA level after treatment (awake rats [2]; 10 mg/kg iv bolus, from 0.85±0.09, p<0.001): 0.35 ± 0.01 nM
- rebound increase of FFA levels (awake rats [2]; after iv bolus): seen

Compound: insulin
- dose of insulin that causes 50% decrease (ED50) in FFA levels (awake rats [3]; in the absence of Compound A): 0.4 (0.3916-0.4208, 95% Cl) U/kg and 0.4 U/kg
- dose of insulin that causes 50% decrease (ED50) in FFA levels (awake rats [3]; in the presence of Compound A (0.5 mg/kg IP), 0.5 mg/kg): 0.1 (0.0935-0.133) U/kg and 0.1 U/kg
- lowering of FFA levels by insulin (awake rats [3]; insulin 0.005-1 U/kg IP, without Compound A): up to 67±1%
